Our source for the IC50 and CC50 values is patent US20070015733A1, “Aryl Phosphate Derivatives of d4T having Activity Against Resistant HIV Strains” (Parker Hughes Institute, priority 1998, published 2007).

For data set [1], the system named is HIV-1 (HTLVIIIB) in TK-deficient CEM T-cells. Put plainly: Inhibition of HIV-1 replication in TK-deficient CEM T-cells (p24 / RT activity). The format is cell-based. On the procedure: (§1) Percent inhibition of viral replication was calculated by comparing the p24 and RT activity values from the test substance-treated infected cells with those from untreated infected cells. In parallel, the cytotoxicity of the compounds was examined using a microculture tetrazolium assay (MTA) of cell proliferation, as described.in the Zarling, Enrice, and Uckun articles Supra).
(§2) Cellular Assays of Anti-HIV Activity and Cytotoxicity. […] Percent viral inhibition was calculated by comparing the RT activity values from the test substance-treated infected cells with RT values from untreated infected cells (i.e., virus controls).

The nature of data set [2]: in vitro. Conditions: human. How it is done:
as §1, §2
Antiviral susceptibility assays. Phenotypic drug susceptibility studies of HIV-1 isolates and strains were performed by measuring the production of the p24 gag protein in peripheral blood mononuclear cells (PBMC) from seronegative healthy volunteers in the presence of increasing concentrations of the anti-HIV agent using the quantitative Coulter HIV-1 p24 antigen ezyme immunoassay (EIA) and HIV-1 p24 Antigen Kinetic Standard (Beckman Coulter), as previously described (Uckun, 1998, Antimicrobial Agents and Chemotherapy 37(4): 835-38). Informed consent was obtained from the blood donors according to DHHS guidelines using consent forms approved by the Institutional Review Board. In brief, PBMC were cultured for 72 h in RPMI 1640 medium (Gibco) supplemented with 20% (vol/vol) heat-inactivated fetal bovine serum, 5% human interleukin-2 (Zeptometrix), 2 mM L-glutamine, 25 mM HEPES, 2 g/L NaHCO3, 100 U/ml penicillin/streptomycin (Gibco), 50 μg/ml gentamicin (Gibco), and 5 μg/ml phytohemagglutinin-P (PHA-P) (Sigma) for 24-72 hours prior to exposure to HIV at a multiplicity of infection of 0.001-0.1 during a 1-h adsorbtion period at 37±1° C. in a humidified 5-7% CO2 atmosphere. Subsequently, cells were cultured in 96-well microtiter plates (100 μl/well; 2×10^6 cells/ml, triplicate wells) in the presence of the anti-HIV agents at 6-7 different concentrations ranging from 0.0001 μM to 100 μM, and 25 μL aliquots of culture supernatants were removed from the wells on day 6 after infection for p24 EIA, as previously described (Uckun, 1998, Antimicrobial Agents and Chemotherapy, 37(4):835-38). Controls included uninfected and untreated cells (background control) and infected but untreated (virus control) cells. The p24 EIA utilizes a murine monoclonal antibody to HIV core protein used to coat microwell strips to which the antigen present in the test culture supernatant samples binds. Percent inhibition of viral replication was calculated by comparing the p24 values from the test substance-treated infected cells with p24 values from untreated infected cells (i.e., virus controls). The IC50 values were determined using the Statview statistics program (SAS Institute, Inc.). In parallel, the effects of various treatments on cell viability were also examined as previously described (Uckun, 1998, Antimicrobial Agents and Chemotherapy, 42:383-388). In brief, noninfected PBMC were treated with each compound for 5 days under identical experimental conditions. A microculture tetrazolium assay (MTA) was performed to quantitate cellular proliferation (Uckun, 1998, Antimicrobial Agents and Chemotherapy, 42:383-388).
In parallel, the cytotoxicity of the compounds was examined using a microculture tetrazolium assay (MTA) of cell proliferation, as described (in the Zarling, Enrice, and Uckun articles Supra).

The nature of data set [3]: in vitro. Conditions: human. On the procedure: as §1, §2
This is another data set of the same source.

For data set [4], the system named is HIV-1 A17-variant (Y181C+K103N mutant, NNRTI-resistant). The data set can be described thus: p24 antigen assay, A17-variant strain in PBMC. The class given is cell-based. The settings on record: Human immunodeficiency virus 1, PBMC. The text has this: In vitro assays of anti-HIV-1 activity.
Viruses. 20 primary clinical isolates with genotypic and/or phenotypic NRTI-resistance (isolated in the laboratory of D. Richman) and 10 clinical isolates with phenotypic stavudine (d4T) resistance (obtained through the AIDS Research and Reference Reagent Program, NIAID) were used in the current study. The HIV-1 strains HTLVIIIB (wildtype RT, NRTI-sensitive, NNRTI-sensitive), A17 (Y181 C mutant, NNRTI-resistant), A17-variant (Y181C+K103N mutant, NNRTI-resistant), and RT-MDR (M41 L, V106N, T215Y; NRTI-resistant, NNRTI-resistant) were also obtained from the AIDS Research and Reference Reagent Program, NIAID.
Antiviral susceptibility assays.

The test system of data set [5] is HIV-1 RT-MDR (NRTI-resistant, NNRTI-resistant). Put plainly: p24 antigen assay, RT-MDR strain. The class given is cell-based.
Where [6] appears, read: Human immunodeficiency virus 1, CCRF-CEM, TK-deficient CEM cells, read-out: IC50 value for inhibition of RT activity.
The mark [7] stands for this setting: Human immunodeficiency virus 1, T-cell, TK-deficient CEM T-cells, Table 5, read-out: CEM IC50 [RT].
Setting [8] is: Human immunodeficiency virus 1, RT-MDR(Con) control strain (M41L, L74V, T215Y, V106N).
Setting [9] is: Human immunodeficiency virus 1, read-out: IC50 RTMDR, p24.
Setting [10] is: Human immunodeficiency virus 1, CCRF-CEM, TK-deficient CEM cells, read-out: IC50 value for inhibition of p24 production.
[11] abbreviates: Human immunodeficiency virus 1, T-cell, TK-deficient CEM, unit not printed in Table 2 (0.556 = 556 nM), read-out: IC50 [p24].
The mark [12] stands for this setting: Human immunodeficiency virus 1, T-cell, TK-deficient CEM, unit not printed in Table 2 (2.355 = 2355 nM), read-out: IC50 [RT].
Where [13] appears, read: Human immunodeficiency virus 1, MT2, laboratory strain RT-MDR (V106N), MT-2 cells, Table 14.

Structures are written as SMILES. Read-outs that look alike come from different tables or passages of the source. Where only a bound is given, the exact number is not on record here.

The term IC50 denotes the concentration that inhibits the measured activity by half. As to `Cc1cn([C@H]2C[C@H](N=[N+]=[N-])[C@@H](CO)O2)c(=O)[nH]c1=O` [AZT, 3′-azido-3′-deoxythymidine], the IC50 in data set [1] (setting [6]) was 200 nM; in data set [1] (setting [7]) it was 200 nM; in the data set “in vitro [3]” (CEM IC50 [MTA]), over 10000 nM; in data set [4] (read-out: IC50 A17V) it was 0.005 nM; in data set [5] (setting [8]), over 10000 nM; in data set [5] (setting [9]), 68 nM. Also, the CC50 at 5 days in “in vitro [2]” (CC50) came to 0.0527 µM; in “in vitro [2]” (CC50, μM), 95.6 ± 2.9 µM. In the data set “in vitro [2]” (PBMNC IC50 [MTA]), this molecule showed a half-inhibitory concentration (IC50) at 5 days of over 10000 nM.
Turning to `COC(=O)C(C)NP(=O)(OC[C@@H]1C=C[C@H](n2cc(C)c(=O)[nH]c2=O)O1)Oc1ccc(Br)cc1` (stereo partly drawn) [Compound 1c, d4T-5′-[p-bromo-phenylmethoxyalaninyl phosphate]], the concentration for half-maximal inhibition (IC50) in data set [1] (setting [6]) was 57 nM; in data set [1] (setting [10]), 44 nM; in data set [1] (setting [7]), 60 nM; in data set [1] (setting [11]), 44 nM; in data set [1] (setting [12]), 57 nM; in “in vitro [3]” it was over 10000 nM. Moreover, the IC50 in data set [4] was under 1 nM; in data set [4] (read-out: IC50 A17V) it was 47 ± 27 nM; in data set [5] (setting [13]), under 1 nM; in data set [5] (setting [8]), under 1 nM; in data set [5] (setting [9]), 20 to 60 nM; in data set [5] (read-out: IC50 RTMDR, p24) it was 21 ± 12 nM. In addition, in “in vitro [2]”, the CC50 at 5 days is over 100 µM. This molecule also had an IC50 at 5 days in the data set “in vitro [2]” of over 10000 nM.
`Cc1cn([C@H]2C=C[C@@H](CO)O2)c(=O)[nH]c1=O` [d4T, 2′,3′-didehydro-2′,3′-dideoxythymidine]: the IC50 was determined as 2360 nM in data set [1] (setting [6]); 556 nM in data set [1] (setting [10]); 2400 nM in data set [1] (setting [7]); 556 nM in data set [1] (setting [11]); 2360 nM in data set [1] (setting [12]); 2340 nM in data set [1] (Human immunodeficiency virus 1, T-cell, read-out: CEM IC50 [RT], TK-deficient CEM T-cells, Table 4). The same molecule showed a half-maximal inhibitory concentration (IC50) in the data set “in vitro [3]” (IC50 [MTA]) of over 10000 nM. For the same molecule, the CC50 at 5 days in the data set “in vitro [2]” (CC50, μM) stood at 4.5 ± 1.7 µM. Besides, the IC50 at 5 days in “in vitro [2]” (IC50 [MTA]) was over 10000 nM.
With `Cc1ccnc2c1NC(=O)c1cccnc1N2C1CC1` [nevirapine], the CC50 at 5 days in the data set “in vitro [2]” (PBMC or MT-2 cells, CC50 values, data not shown) is over 100 µM; in “in vitro [2]” (peripheral blood mononuclear cells (PBMC), CC50, μM, viability of PBMC) it was 5.1 ± 2.3 µM. Besides, the half-maximal inhibitory concentration (IC50) in data set [4] amounted to 32000 ± 7000 nM; in data set [5] (setting [13]), 18000 ± 8000 nM.
